Eleven compounds from PubChem BioAssay (NCI) can be followed below.

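Growth conditions: 96-well plates. Treatment: test compound, 48 hours, 5 concentrations. Analysis: linear interpolation between bracketing concentrations; unreached endpoints set to highest concentration. GI50 marks 50% less growth. TGI denotes the concentration required for complete inhibition of growth.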 Some results are limits rather than exact numbers.

Among the test systems are MALME-3M melanoma; HS 578T breast; K-562 leukemia; SF-539 CNS; SW-620 colon; NCI-H460 lung; SK-MEL-2 melanoma; HCT-116 colon; LOX IMVI melanoma; HOP-62 NSCLC.
Common to all, as to assay: NCI anticancer screen, dose series, 48 h

On to `O=C(O)Cn1c2c(c3c1-c1ccccc1C3=O)C(=O)CCC2`, for which the GI50 in the test on MALME-3M melanoma, with HS 578T breast, in the test with K-562 leukemia, in the test on SF-539 CNS, in the test on SW-620 colon and in the test on NCI-H460 lung was over 100 µM each time. Besides, the GI50 with SK-MEL-2 melanoma, with HCT-116 colon, with LOX IMVI melanoma and in the test on HOP-62 NSCLC was over 100 µM each time. Moreover, the TGI in the test with MALME-3M melanoma, in the test on HS 578T breast, with K-562 leukemia, in the test on SF-539 CNS, in the test on SW-620 colon and in the test with NCI-H460 lung was over 100 µM each time. For the same compound, the TGI in the test on SK-MEL-2 melanoma, with HCT-116 colon, in the test on LOX IMVI melanoma and with HOP-62 NSCLC was over 100 µM throughout.

As for `COC(=O)CCC(=O)NC1=C(Nc2ccccc2)C(=O)c2ccccc2C1=O`, the TGI with MALME-3M melanoma is 5.61 µM; in the test with HS 578T breast, 32.7 µM; in the test with K-562 leukemia it was over 57.6 µM; in the test with SF-539 CNS, 29.1 µM; with SW-620 colon, 30.6 µM; with NCI-H460 lung, 31.9 µM. The TGI with SK-MEL-2 melanoma was 16.4 µM; with HCT-116 colon it was 23 µM; in the test with LOX IMVI melanoma, 13.9 µM; in the test with HOP-62 NSCLC, 32.1 µM.

As for `CSc1nnc(SCc2nn3c(=O)cc(C)nc3s2)s1`, the TGI in the test on MALME-3M melanoma, with HS 578T breast, in the test with K-562 leukemia, in the test with SF-539 CNS, in the test on SW-620 colon and in the test on NCI-H460 lung was over 100 µM in each case. For the same compound, the TGI in the test on SK-MEL-2 melanoma, in the test on HCT-116 colon, in the test with LOX IMVI melanoma and in the test on HOP-62 NSCLC was over 100 µM each time.

Consider `C=C(Br)C[N+]12CN3CN(CN(C3)C1)C2`, for which the TGI with MALME-3M melanoma, in the test on HS 578T breast, with K-562 leukemia, in the test with SF-539 CNS, in the test on SW-620 colon and with NCI-H460 lung was over 100 µM throughout. Further, the TGI in the test on SK-MEL-2 melanoma, in the test on HCT-116 colon, in the test with LOX IMVI melanoma and in the test on HOP-62 NSCLC was over 100 µM in each case.

Regarding `O=C(Nc1ccc(-n2cc(-c3ccncc3)c(-c3ccc(O)c(Cl)c3)n2)cc1)c1ccc(Cl)c(C(F)(F)F)c1`, the GI50 in the test with MALME-3M melanoma is 1.45 µM; with HS 578T breast, 0.702 µM; with K-562 leukemia it was 1.37 µM; with SF-539 CNS, 0.96 µM; in the test on SW-620 colon, 2.38 µM; in the test on NCI-H460 lung, 1.94 µM. Moreover, the GI50 in the test with SK-MEL-2 melanoma is 1.22 µM; in the test on HCT-116 colon, 1.75 µM; with LOX IMVI melanoma, 1.12 µM; with HOP-62 NSCLC it was 2.31 µM. In addition, the TGI was 6.71 µM in the test with MALME-3M melanoma; 3.1 µM with HS 578T breast; over 50 µM in the test with K-562 leukemia; 3.41 µM in the test with SF-539 CNS; over 50 µM in the test on SW-620 colon; over 50 µM with NCI-H460 lung. Besides, the TGI in the test with SK-MEL-2 melanoma was 3.32 µM; with HCT-116 colon, 7.04 µM; in the test with LOX IMVI melanoma, 6.88 µM; in the test on HOP-62 NSCLC, over 50 µM.

Regarding `Cc1nc2ccc(Br)cc2c(=O)n1-c1ccc(N)cc1`, the TGI in the test with MALME-3M melanoma, in the test with HS 578T breast, with K-562 leukemia, in the test on SF-539 CNS, in the test with SW-620 colon and in the test with NCI-H460 lung was over 100 µM throughout. In addition, the TGI in the test with SK-MEL-2 melanoma, with HCT-116 colon, with LOX IMVI melanoma and with HOP-62 NSCLC was over 100 µM in each case.

For the compound `O=c1[nH]nc(-c2ccccc2)c2[nH]c3c(c12)Cc1ccccc1-3`, the TGI in the test on MALME-3M melanoma was over 41.6 µM; in the test on HS 578T breast, over 100 µM; in the test on K-562 leukemia, over 100 µM; in the test with SF-539 CNS, over 28.3 µM; in the test on SW-620 colon, over 100 µM; with NCI-H460 lung, over 100 µM. The TGI in the test with SK-MEL-2 melanoma, with HCT-116 colon, in the test on LOX IMVI melanoma and in the test on HOP-62 NSCLC was over 100 µM in each case.

Take `[N-]=[N+]=Nc1nc2ccccc2c(N=[N+]=[N-])c1Cl`: the TGI in the test on MALME-3M melanoma, in the test on HS 578T breast, with K-562 leukemia, in the test with SF-539 CNS, with SW-620 colon and with NCI-H460 lung was over 100 µM in each case. The TGI with SK-MEL-2 melanoma, in the test on HCT-116 colon, with LOX IMVI melanoma and in the test with HOP-62 NSCLC was over 100 µM each time.

As for `COC(=O)c1c2c(cc3c1CC1(Cc4cc5c(c(C)c4C1)CCC5)C3)CCC2` (configuration not stated), the TGI with MALME-3M melanoma, with HS 578T breast, in the test on K-562 leukemia, in the test on SF-539 CNS, in the test with SW-620 colon and in the test with NCI-H460 lung was over 100 µM in each case. The TGI with SK-MEL-2 melanoma, with HCT-116 colon, with LOX IMVI melanoma and in the test on HOP-62 NSCLC was over 100 µM in each case.

Take `CC/C=C/c1cc2c(cc1O)CCC1C2CC[C@@]2(C)C1CC[C@@H]2O` (some centres not stated): the TGI with MALME-3M melanoma came out at 15.8 µM; in the test with HS 578T breast, 6.11 µM; in the test on K-562 leukemia, 7.66 µM; in the test on SF-539 CNS it was 2.59 µM; in the test with SW-620 colon, 14.2 µM; in the test with NCI-H460 lung, 17.3 µM. For the same compound, the TGI amounted to 6.29 µM in the test on SK-MEL-2 melanoma, 14.3 µM in the test with HCT-116 colon, 6.68 µM with LOX IMVI melanoma and 16.7 µM in the test with HOP-62 NSCLC. In addition, the GI50 is 0.645 µM with SF-539 CNS and 2.69 µM in the test on HOP-62 NSCLC.

Regarding `CC(=O)CC(=O)N1CCSC1=S`, the TGI with MALME-3M melanoma, in the test with HS 578T breast, in the test on K-562 leukemia, with SF-539 CNS, with SW-620 colon and in the test on NCI-H460 lung was over 10 µM in each case. Further, the TGI in the test on SK-MEL-2 melanoma, with HCT-116 colon, in the test on LOX IMVI melanoma and with HOP-62 NSCLC was over 10 µM each time.
